In ChEMBL document CHEMBL5584224, “Recent advances in c-Met-based dual inhibitors in the treatment of cancers” (Eur J Med Chem, 2024):

Experiments:
[1] = target: T1, Tyrosine-protein kinase receptor UFO (Homo sapiens, UniProt P30530); experiment: Inhibition of AXL (unknown origin)
T1 sequence (P30530 whole entry): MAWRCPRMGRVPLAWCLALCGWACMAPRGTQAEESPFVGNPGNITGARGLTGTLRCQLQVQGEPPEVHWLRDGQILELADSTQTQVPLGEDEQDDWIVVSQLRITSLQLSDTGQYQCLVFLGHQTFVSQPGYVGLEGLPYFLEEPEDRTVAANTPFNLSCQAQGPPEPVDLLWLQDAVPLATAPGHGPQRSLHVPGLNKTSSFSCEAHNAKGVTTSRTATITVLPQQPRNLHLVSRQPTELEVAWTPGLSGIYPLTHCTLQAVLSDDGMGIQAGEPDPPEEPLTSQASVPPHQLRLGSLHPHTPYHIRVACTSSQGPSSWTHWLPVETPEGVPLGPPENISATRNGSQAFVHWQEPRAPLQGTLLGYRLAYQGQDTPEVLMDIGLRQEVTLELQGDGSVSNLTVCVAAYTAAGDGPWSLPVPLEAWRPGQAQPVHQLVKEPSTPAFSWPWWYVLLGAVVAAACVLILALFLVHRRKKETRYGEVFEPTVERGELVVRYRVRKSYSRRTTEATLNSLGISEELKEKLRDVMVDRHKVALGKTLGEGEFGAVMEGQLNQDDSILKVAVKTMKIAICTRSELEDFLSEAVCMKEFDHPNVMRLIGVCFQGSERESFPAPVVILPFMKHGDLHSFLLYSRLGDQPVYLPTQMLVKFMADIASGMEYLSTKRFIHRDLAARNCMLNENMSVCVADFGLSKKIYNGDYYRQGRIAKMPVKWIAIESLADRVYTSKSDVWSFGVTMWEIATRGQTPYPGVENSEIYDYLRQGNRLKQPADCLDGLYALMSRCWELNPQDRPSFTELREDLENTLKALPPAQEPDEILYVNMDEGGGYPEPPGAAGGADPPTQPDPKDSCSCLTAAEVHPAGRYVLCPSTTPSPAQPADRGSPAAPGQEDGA

[2] = target: Prostaglandin G/H synthase 2 (Homo sapiens, UniProt P35354); experiment: Inhibition of COX-2 (unknown origin)
Sequence of Prostaglandin G/H synthase 2 (P35354 whole entry): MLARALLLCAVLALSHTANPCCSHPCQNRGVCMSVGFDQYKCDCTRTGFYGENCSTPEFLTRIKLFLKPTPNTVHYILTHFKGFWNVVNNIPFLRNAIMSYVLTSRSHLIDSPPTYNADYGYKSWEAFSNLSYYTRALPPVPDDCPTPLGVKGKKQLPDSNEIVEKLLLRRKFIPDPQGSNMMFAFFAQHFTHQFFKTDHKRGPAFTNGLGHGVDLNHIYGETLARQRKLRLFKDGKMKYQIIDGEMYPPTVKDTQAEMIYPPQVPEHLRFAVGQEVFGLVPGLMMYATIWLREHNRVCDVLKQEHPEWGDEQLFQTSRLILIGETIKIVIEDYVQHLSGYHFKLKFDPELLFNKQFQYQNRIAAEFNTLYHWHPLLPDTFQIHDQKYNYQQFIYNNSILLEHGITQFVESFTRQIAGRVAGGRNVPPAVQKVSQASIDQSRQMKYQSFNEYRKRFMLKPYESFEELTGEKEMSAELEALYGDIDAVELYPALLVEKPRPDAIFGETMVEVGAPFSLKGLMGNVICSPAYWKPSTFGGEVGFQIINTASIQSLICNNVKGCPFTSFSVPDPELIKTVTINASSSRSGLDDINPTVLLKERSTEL

MCF7 = experiment: Antiproliferative activity against human MCF7 cells assessed as reduction in cell viability incubated for 24 hrs by MTT assay; type: functional, cell-based; conditions: MCF7, 24 h
HT-29 = experiment: Antiproliferative activity against human HT-29 cells assessed as reduction in cell viability incubated for 24 hrs by MTT assay; type: functional, cell-based; conditions: HT-29, 24 h
MDA-MB-231 [3] = experiment: Antiproliferative activity against human MDA-MB-231 cells assessed as reduction in cell viability incubated for 24 hrs by MTT assay; type: functional, cell-based; conditions: MDA-MB-231, 24 h
A549 [4] = experiment: Antiproliferative activity against human A549 cells assessed as reduction in cell viability incubated for 24 hrs by MTT assay; type: functional, cell-based; conditions: A549, 24 h
COLO 205 = experiment: Antiproliferative activity against human COLO 205 cells assessed as reduction in cell viability incubated for 24 hrs by MTT assay; type: functional, cell-based; conditions: COLO 205, 24 h
[5] = target: T2, Hepatocyte growth factor receptor (Homo sapiens, UniProt P08581)
T2 sequence (P08581 whole entry): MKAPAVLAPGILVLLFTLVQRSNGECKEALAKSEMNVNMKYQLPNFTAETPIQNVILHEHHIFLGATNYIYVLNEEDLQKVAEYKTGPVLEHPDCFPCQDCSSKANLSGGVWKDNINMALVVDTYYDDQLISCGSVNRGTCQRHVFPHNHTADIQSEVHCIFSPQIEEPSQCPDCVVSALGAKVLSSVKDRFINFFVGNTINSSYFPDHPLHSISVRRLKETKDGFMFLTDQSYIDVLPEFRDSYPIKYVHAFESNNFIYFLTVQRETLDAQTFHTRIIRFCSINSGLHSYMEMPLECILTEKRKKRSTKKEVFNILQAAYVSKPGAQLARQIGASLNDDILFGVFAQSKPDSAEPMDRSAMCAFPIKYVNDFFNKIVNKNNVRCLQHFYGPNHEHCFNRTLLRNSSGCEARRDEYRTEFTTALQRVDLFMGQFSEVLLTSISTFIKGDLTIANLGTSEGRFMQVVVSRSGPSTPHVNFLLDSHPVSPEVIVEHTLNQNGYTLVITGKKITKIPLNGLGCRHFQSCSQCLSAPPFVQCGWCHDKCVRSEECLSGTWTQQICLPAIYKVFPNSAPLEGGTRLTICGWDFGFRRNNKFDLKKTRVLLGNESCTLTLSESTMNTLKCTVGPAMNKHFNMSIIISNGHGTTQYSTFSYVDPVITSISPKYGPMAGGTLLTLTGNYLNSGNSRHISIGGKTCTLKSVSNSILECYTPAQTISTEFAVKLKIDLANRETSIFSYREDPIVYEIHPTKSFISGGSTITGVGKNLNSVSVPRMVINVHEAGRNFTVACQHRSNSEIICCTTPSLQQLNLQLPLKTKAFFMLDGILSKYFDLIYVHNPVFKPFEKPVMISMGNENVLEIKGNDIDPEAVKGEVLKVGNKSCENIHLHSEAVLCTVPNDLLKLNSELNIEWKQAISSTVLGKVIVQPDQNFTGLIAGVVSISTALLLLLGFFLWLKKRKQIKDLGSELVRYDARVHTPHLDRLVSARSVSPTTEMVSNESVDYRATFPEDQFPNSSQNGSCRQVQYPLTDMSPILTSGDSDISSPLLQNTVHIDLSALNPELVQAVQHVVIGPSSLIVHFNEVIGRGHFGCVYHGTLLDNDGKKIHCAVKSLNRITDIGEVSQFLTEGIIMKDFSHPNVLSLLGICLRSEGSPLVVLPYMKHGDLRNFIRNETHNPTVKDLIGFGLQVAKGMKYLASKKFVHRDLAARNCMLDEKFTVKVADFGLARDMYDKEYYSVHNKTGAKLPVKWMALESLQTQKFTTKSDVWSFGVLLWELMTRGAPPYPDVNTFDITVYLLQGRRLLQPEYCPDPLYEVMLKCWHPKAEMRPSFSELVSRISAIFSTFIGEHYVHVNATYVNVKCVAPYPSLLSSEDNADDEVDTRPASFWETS
Description: Inhibition of c-MET (unknown origin)

A549 [6] = experiment: Antiproliferative activity against human A549 cells assessed as reduction in cell viability incubated for 72 hrs by MTT assay; type: functional, cell-based; conditions: A549, 72 h
PC-9 = experiment: Antiproliferative activity against human PC-9 cells assessed as reduction in cell growth incubated for 72 hrs by MTT assay; type: functional, cell-based; conditions: PC-9, 72 h
A-431 = experiment: Antiproliferative activity against human A-431 cells assessed as reduction in cell viability incubated for 24 hrs by MTT assay; type: functional, cell-based; conditions: A-431, 24 h
NCI-H1975 = experiment: Antiproliferative activity against human NCI-H1975 cells assessed as reduction in cell viability incubated for 48 hrs by MTT assay; type: functional, cell-based; conditions: NCI-H1975, 48 h
[7] = target: T3, ALK tyrosine kinase receptor (Homo sapiens, UniProt Q9UM73); experiment: Inhibition of ALK (unknown origin)
T3 sequence (Q9UM73 whole entry): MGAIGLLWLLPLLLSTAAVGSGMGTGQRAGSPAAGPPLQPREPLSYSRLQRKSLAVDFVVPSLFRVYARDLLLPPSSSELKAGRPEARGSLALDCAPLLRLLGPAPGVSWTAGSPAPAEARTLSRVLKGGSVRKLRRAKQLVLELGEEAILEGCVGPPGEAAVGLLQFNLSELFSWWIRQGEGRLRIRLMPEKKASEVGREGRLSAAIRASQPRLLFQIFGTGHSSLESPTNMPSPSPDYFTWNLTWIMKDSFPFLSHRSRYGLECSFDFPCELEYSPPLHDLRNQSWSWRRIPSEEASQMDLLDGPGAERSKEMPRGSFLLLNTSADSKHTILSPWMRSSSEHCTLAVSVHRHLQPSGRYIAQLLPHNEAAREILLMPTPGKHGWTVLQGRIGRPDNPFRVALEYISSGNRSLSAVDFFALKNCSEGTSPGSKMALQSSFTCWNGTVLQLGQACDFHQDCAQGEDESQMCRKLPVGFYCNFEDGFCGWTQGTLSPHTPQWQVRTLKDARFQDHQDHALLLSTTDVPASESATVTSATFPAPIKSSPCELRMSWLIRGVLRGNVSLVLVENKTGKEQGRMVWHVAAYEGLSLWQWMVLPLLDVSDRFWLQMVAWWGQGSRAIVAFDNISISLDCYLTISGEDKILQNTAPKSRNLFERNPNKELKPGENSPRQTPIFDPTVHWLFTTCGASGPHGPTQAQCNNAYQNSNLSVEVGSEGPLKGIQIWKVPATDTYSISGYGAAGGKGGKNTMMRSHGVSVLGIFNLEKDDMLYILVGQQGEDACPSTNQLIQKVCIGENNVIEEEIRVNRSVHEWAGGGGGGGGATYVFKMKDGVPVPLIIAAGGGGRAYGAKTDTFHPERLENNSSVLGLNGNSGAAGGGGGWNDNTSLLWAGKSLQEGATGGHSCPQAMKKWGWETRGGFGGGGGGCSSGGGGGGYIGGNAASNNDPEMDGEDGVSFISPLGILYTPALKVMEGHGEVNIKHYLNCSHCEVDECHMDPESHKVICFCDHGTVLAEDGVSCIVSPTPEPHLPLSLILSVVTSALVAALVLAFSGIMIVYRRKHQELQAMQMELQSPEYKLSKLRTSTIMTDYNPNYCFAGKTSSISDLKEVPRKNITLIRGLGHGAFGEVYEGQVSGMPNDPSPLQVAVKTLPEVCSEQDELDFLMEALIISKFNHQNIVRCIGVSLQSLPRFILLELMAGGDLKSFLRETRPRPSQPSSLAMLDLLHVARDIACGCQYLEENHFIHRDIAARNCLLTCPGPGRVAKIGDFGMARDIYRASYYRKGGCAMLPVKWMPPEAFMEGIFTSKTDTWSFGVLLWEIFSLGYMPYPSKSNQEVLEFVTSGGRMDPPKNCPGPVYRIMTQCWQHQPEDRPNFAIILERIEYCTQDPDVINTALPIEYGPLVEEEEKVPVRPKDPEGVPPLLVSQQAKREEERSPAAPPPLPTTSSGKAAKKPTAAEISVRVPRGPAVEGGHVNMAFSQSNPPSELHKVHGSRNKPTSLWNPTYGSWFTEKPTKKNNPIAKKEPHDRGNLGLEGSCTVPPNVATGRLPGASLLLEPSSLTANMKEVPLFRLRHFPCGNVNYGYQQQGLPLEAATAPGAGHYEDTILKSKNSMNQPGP

KB 3-1 = experiment: Antiproliferative activity against human KB-3-1 cells assessed as cell growth inhibition; type: functional, cell-based
HCC827 = experiment: Antiproliferative activity against human HCC827 cells; type: functional, cell-based
NCI-H3122 = experiment: Antiproliferative activity against human NCI-H3122 cells assessed as reduction in cell viability incubated for 48 hrs by MTT assay; type: functional, cell-based; conditions: NCI-H3122, 48 h
[8] = target: T3, ALK tyrosine kinase receptor
Description: Inhibition of ALK (unknown origin) by TR-FRET assay

Histone deacetylase 1 = Histone deacetylase 1 (Homo sapiens, UniProt Q13547); experiment: Inhibition of HDAC1 (unknown origin) expressed in Sf9 cells using Z-Lys(Ac)-AMC as fluorogenic substrate preincubated for 60 mins followed by substrate addition and measured after 1 hr by fluorescence based microplate analysis
Sequence of Histone deacetylase 1 (Q13547 whole entry): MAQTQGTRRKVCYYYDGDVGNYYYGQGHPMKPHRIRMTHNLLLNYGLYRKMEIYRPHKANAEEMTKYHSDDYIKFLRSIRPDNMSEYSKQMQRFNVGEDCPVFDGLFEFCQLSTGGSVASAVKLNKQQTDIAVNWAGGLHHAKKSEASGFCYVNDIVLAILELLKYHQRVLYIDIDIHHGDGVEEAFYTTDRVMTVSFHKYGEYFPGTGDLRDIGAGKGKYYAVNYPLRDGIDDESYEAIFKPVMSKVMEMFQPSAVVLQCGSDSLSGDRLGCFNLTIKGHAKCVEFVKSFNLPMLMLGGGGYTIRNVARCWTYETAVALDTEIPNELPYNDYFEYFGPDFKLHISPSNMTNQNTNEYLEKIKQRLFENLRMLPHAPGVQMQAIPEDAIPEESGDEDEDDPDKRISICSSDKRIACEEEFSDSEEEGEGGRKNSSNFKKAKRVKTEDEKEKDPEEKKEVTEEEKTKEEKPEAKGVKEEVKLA

[9] = target: T2, Hepatocyte growth factor receptor; experiment: Inhibition of c-Met (unknown origin) by mobility shift assay
[10] = Inhibition of TrxR (unknown origin); design: species or system Homo sapiens
MDA-MB-231 [11] = experiment: Antiproliferative activity against human MDA-MB-231 cells assessed as reduction in cell viability by MTT assay; type: functional, cell-based
BT-549 = experiment: Antiproliferative activity against human BT-549 cells assessed as reduction in cell viability by MTT assay; type: functional, cell-based
4T1 = experiment: Antiproliferative activity against mouse 4T1 cells assessed as reduction in cell viability by MTT assay; type: functional, cell-based

COc1cc2nccc(Oc3ccc(Nc4nccc5ccn(-c6ccc(C)cc6)c(=O)c45)cc3F)c2cc1OC
IC50 [1]: 17.2 nM

Cc1ccc(C(=O)Nc2cccc(C(=O)/C=C/c3ccc(F)cc3)c2)cc1
IC50 [2]: 1620 nM
IC50 (MCF7): 15700 nM
IC50 (HT-29): 10400 nM
IC50 (MDA-MB-231 [3]): 7930 nM
IC50 (A549 [4]): 37000 nM
IC50 (COLO 205): < 100 nM
IC50 [5]: 6610 nM

Fc1ccc(Cl)c(Sc2n[nH]c3ncc(-c4cnn(C5CCNCC5)c4)cc23)c1Cl
IC50 [5]: 14.6 nM

C=CC(=O)Nc1cc2c(Oc3ccc(NC(=O)c4c(C)n(C)n(-c5ccccc5)c4=O)cc3F)ncnc2cc1OC
IC50 (A549 [6]): 1060 nM
IC50 (PC-9): 1050 nM

c1ccc2oc(COCC3Cc4cn5ncnc(-c6cnn(C7CCNCC7)c6)c5c4C3)cc2c1 (stereo not given)
IC50 (A-431): > 1000 nM
IC50 (NCI-H1975): 60 nM

Fc1ccc(Cl)c(COCC2Cc3cn4ncnc(-c5cnn(C6CCNCC6)c5)c4c3C2)c1Cl (stereo not given)
IC50 [7]: 0.24 nM
IC50 (A-431): 100 nM
IC50 (NCI-H1975): 6.21 nM

COCCNCc1ccc(-c2cc3nccc(Oc4ccc(NC(=S)NC(=O)Cc5ccc(F)cc5)cc4F)c3s2)nc1 [GLESATINIB]
IC50 (KB 3-1): 4 nM

CC(=O)O[C@H]1C(=O)[C@@]2(C)[C@H]([C@H](OC(=O)c3ccccc3)[C@]3(O)C[C@H](OC(=O)[C@H](O)[C@@H](NC(=O)c4ccccc4)c4ccccc4)C(C)=C1C3(C)C)[C@]1(OC(C)=O)CO[C@@H]1C[C@@H]2O [PACLITAXEL]
IC50 (KB 3-1): 29 nM

COCCN1CCN(C(=O)C#Cc2c(Oc3ccc(NC(=O)c4cn(C(C)C)c(=O)n(-c5ccc(F)cc5)c4=O)cc3F)ccnc2N)CC1
IC50 (HCC827): < 100 nM

C[C@@H](Oc1cc(C(=O)Nc2ccc(=O)n(C)c2)nnc1N)c1c(Cl)ccc(F)c1Cl
IC50 [7]: 60 nM
IC50 [5]: 40 nM

Clc1ncccc1COCC1Cc2cn3ncnc(-c4cnn(C5CCNCC5)c4)c3c2C1 (stereo not given)
IC50 [7]: 1.88 nM
IC50 (A-431): > 1000 nM
IC50 (NCI-H1975): 39.2 nM

CN1CCc2ccc(COCC3Cc4cn5ncnc(-c6cnn(C7CCNCC7)c6)c5c4C3)cc21 (stereo not given)
IC50 [7]: 20.3 nM
IC50 (A-431): 749 nM
IC50 (NCI-H1975): 84.3 nM

Cn1cc(-c2cc3c(Oc4ccc(NC(=O)C5(C(=O)Nc6ccc(F)cc6)CC5)cc4)ncnn3c2)cn1
IC50 [1]: 26 nM

C[C@@H](Oc1cc(C(=O)Nc2ccc(C(=O)N3CCN(C)CC3)cc2)nnc1N)c1c(Cl)ccc(F)c1Cl
IC50 (NCI-H3122): 77 nM

COc1cc(N2CCNC[C@@H]2C)ncc1-c1cnc(N)c(O[C@H](C)c2c(Cl)ccc(F)c2Cl)c1 [ENVONALKIB]
IC50 [8]: 14.3 nM

CC(C)N1CCC(CC#Cc2c(Oc3ccc(NC(=O)c4cn(C(C)C)c(=O)n(-c5ccc(F)cc5)c4=O)cc3F)ccnc2N)CC1
IC50 (HCC827): < 100 nM

COCCN1CCC(C#Cc2c(Oc3ccc(NC(=O)c4ccnn(-c5ccc(F)cc5)c4=O)cc3F)ccnc2N)CC1
IC50 (HCC827): < 100 nM

COCCN1CCN(C(C)(C)C#Cc2c(Oc3ccc(NC(=O)c4cn(C(C)C)c(=O)n(-c5ccc(F)cc5)c4=O)cc3F)ccnc2N)CC1
IC50 (HCC827): < 100 nM

Cc1nc(Cn2cc(C(=O)Nc3ccc(Oc4ccnc(N)c4C#CCC4CCN(C)CC4)c(F)c3)c(=O)n(-c3ccc(F)cc3)c2=O)cs1
IC50 (HCC827): < 100 nM

CN1CCN(CC#Cc2c(Oc3ccc(NC(=O)c4ccnn(-c5ccc(F)cc5)c4=O)cc3F)ccnc2N)CC1
IC50 (HCC827): < 100 nM

O=C(/C=C/c1ccc(F)cc1)c1cccc(NC(=O)c2ccc(Cl)cc2)c1
IC50 [2]: 2430 nM
IC50 (MCF7): 7070 nM
IC50 (HT-29): 13600 nM
IC50 (MDA-MB-231 [3]): 43000 nM
IC50 (A549 [4]): 43800 nM
IC50 (COLO 205): < 100 nM
IC50 [5]: 7900 nM

N#CC1=C(N)OC2=C(c3sc(N)c(C#N)c3CC2)C1c1ccccc1 (stereo not given)
IC50 [5]: 8.32 nM

COc1cc2c(c(OC)c1OC)-c1ccc(OC)c(=O)cc1[C@@H](NC(C)=O)CC2 [COLCHICINE]
IC50 (KB 3-1): 1900 nM

COCCN1CCN(C(=O)C#Cc2c(Oc3ccc(NC(=O)c4ccnn(-c5ccc(F)cc5)c4=O)cc3F)ccnc2N)CC1
IC50 (HCC827): < 100 nM

COCCN1CCC(C#Cc2c(Oc3ccc(NC(=O)c4cn(C(C)C)c(=O)n(-c5ccc(F)cc5)c4=O)cc3F)ccnc2N)CC1
IC50 (HCC827): < 100 nM

O=C(Nc1ccc(F)cc1)C1(C(=O)Nc2ccc(Oc3ncnn4cc(-c5cnn(CCO)c5)cc34)cc2)CC1
IC50 [1]: 8.6 nM

Nc1ccccc1NC(=O)c1ccc(OCCCOc2ccc3c(OCCn4nc(-c5cn[nH]c5)ccc4=O)ccnc3c2)cn1
IC50 (Histone deacetylase 1): 38 nM
IC50 [9]: 0.71 nM

c1cncc(COCC2Cc3cn4ncnc(-c5cnn(C6CCNCC6)c5)c4c3C2)c1 (stereo not given)
IC50 [7]: 1.59 nM
IC50 (A-431): > 1000 nM
IC50 (NCI-H1975): 45.2 nM

COc1cccc2c1C(=O)c1c(O)c3c(c(O)c1C2=O)C[C@@](O)(C(=O)CO)C[C@@H]3O[C@H]1C[C@H](N)[C@H](O)[C@H](C)O1 [DOXORUBICIN]
IC50 (KB 3-1): 6 nM

Nc1nccc(Oc2ccc(NC(=O)c3ccnn(-c4ccc(F)cc4)c3=O)cc2F)c1C#CCC1CCNCC1
IC50 (HCC827): < 100 nM
IC50 [5]: 10 nM

COc1cc2nccc(Oc3ccc(Nc4nccc5ccn(-c6ccc(Br)cc6)c(=O)c45)cc3F)c2cc1OC
IC50 [1]: > 1000 nM

CC(C)n1cc(C(=O)Nc2ccc(Oc3ccnc4c3Oc3ccccc3N4)c(F)c2)c(=O)c(-c2ccc(F)cc2)c1
IC50 [1]: 7 nM

c1coc(COCC2Cc3cn4ncnc(-c5cnn(C6CCNCC6)c5)c4c3C2)c1 (stereo not given)
IC50 [7]: 0.33 nM
IC50 (A-431): 699 nM
IC50 (NCI-H1975): 1.3 nM

CC(C)n1cc(C(=O)Nc2ccc(Oc3ccnc(N)c3C#CC(=O)N3CCOCC3)c(F)c2)c(=O)n(-c2ccc(F)cc2)c1=O
IC50 (HCC827): < 100 nM

O=C(Nc1cccc(-c2nc(-c3ccc(NC(=O)c4cccnc4)cc3Cl)no2)c1)Nc1ccc(NC(=O)C2CC2)c(C(F)(F)F)c1
IC50 [10]: 500 nM

Cc1c(C(=O)Nc2ccc(Oc3ccnc4cc(OCC(C)(C)O)ccc34)c(F)c2)c(=O)n(-c2ccccc2)n1C [NINGETINIB]
IC50 [5]: 33.4 nM

CC(C)n1cc(C(=O)Nc2ccc(Oc3ccnc(N)c3C#CC(=O)N3CCNCC3)c(F)c2)c(=O)n(-c2ccc(F)cc2)c1=O
IC50 (HCC827): < 100 nM

COc1cc2nc(N3CCN(C(=O)C4COc5ccccc5O4)CC3)nc(N)c2cc1OC (stereo not given) [DOXAZOSIN]
IC50 (MDA-MB-231 [11]): 23900 nM
IC50 (BT-549): 24800 nM
IC50 (4T1): 7730 nM

CC(C)n1cc(C(=O)Nc2ccc(Oc3ccnc(N)c3C#CC(C)(C)N3CCOCC3)c(F)c2)c(=O)n(-c2ccc(F)cc2)c1=O
IC50 (HCC827): < 100 nM

CNC(=O)c1ccccc1Nc1nc(Nc2ccc3c(c2)[C@@H](C)CNCC3)ncc1Cl
IC50 [7]: 7.9 nM
IC50 [5]: 6.4 nM
